According to patent publication US20150362481A1, “METHOD FOR THE IDENTIFICATION OF BITTER TASTING COMPOUNDS AND BITTER TASTE MODULATING COMPOUNDS” (Universitat Wien, priority 2013, published 2015):
Several values for one entry are separate records, joined by “and”; a condition that tells them apart may be missing. Equal entries are not always repeated.

Columns and labels:
[1] = test system: TAS2R10 "knockdown" HGT-1 cells; test: Effect of caffeine on proton secretion in TAS2R10 siRNA knockdown HGT-1 cells; type: cell-based, human; details: 3 mM, 10 min
Method: The HiPerFect transfection reagent (Qiagen) was used to transfect small interfering RNA (siRNA), targeting specifically human TAS2R10 (5′-[…]-3′; Sigma-Aldrich) into HGT-1 cells for the specific reduction of TAS2R10 expression. Cells were grown to 50% confluence in serum containing DMEM-media and incubation for 48 h was started by addition of serum-free media containing siRNA targeted against TAS2R10 (final siRNA concentration 1 nM) and HiPerFect transfection reagent (1 μL/6 pmol siRNA). Unrelated non-silencing siRNA (Qiagen) was used as negative control and siRNA targeted against Mn/Hs_MAPK1 which is known to efficiently knocks down human MAPK1 (Qiagen) was used as positive control. A mock transfection, in which only the HiPerFect transfection reagent was tested, was also carried out to exclude the effects of the transfection reagent itself. The knockdown efficiency was controlled by measuring mRNA expression of TAS2R10 using RT-qPCR as explained in example 1.
Statistics: two-way ANOVA with Student-Newman-Keuls post-hoc test, data shown as mean±SEM, n=3, tr=6.

[2] = test system: sensorically-trained expert panel; test: Sensoric assessment: bitter-reduction of a bitter tasting solution; type: in vivo, human; set-up: key to Bitterness Bitter compound + Test substance: 1 = not bitter, 10 = extremely bitter; details: for Bitterness Bitter compound alone: scale 1 [not bitter] to 10 [extremely bitter]; for Bitterness Bitter compound + Test substance: scale 1 to 10
Method: For categorization of the bitter impression, a scale from 1 [not bitter] to 10 [extremely bitter] was used. For calculation of the percent reduction of bitter taste, the mean values of the rating of the expert panel for the solution of the bitter substance alone and the solution of the bitter substance in combination with the tested potential masking substance were compared. Significances were calculated using a paired, two sided student t-test and indicated by the p-values in Table 4.

HGT-1 cells [3] = test: Reduction of bitter substance induced proton secretion in HGT-1 cells by bitter-masking compounds; type: cell-based, human; details: 10 min
Method: (§1) The human gastric tumor cell line HGT-1 was used for all cell culture experiments. This cell line has been obtained from Dr. C. Laboisse (Laboratory of Pathological Anatomy, Nantes, France). The cells were cultured under standard conditions at 37° C., 95% humidity, and 5% CO2 in DMEM with 4 g/L glucose, 10% fetal bovine serum, 2% L-glutamine, and 1% penicillin/streptomycin. For the reverse transcription and the intracellular proton concentration assay, the cells were harvested using trypsin/EDTA. Cell viability has been determined using trypan blue staining for which the cells were seeded in a defined cell number in 35 mm dishes respectively in black 96-well plates. […] In a 96-well plate, a total of 100,000 HGT-1 cells were spread and allowed to settle for 24 h at 37° C., 95% humidity, and 5% CO2. Cells were washed once with KRHB and incubated with the fluorescence dye SNARF-1-AM at a concentration of 3 μM for 30 min. […] As positive control, the cells were treated with 1 mM histamine. Fluorescence was analyzed at an excitation of 488 nm and emission wavelengths were recorded at 580 nm and 640 nm on an Infinite 200 Pro plate reader. The ratio of the fluorescence intensities from those two emission wavelengths allows an accurate determination of pH when plotted on a calibration curve. […] The potassium buffer calibration solutions for the intracellular pH measurement consisted of 20 mM NaCl, 110 mM KCl, 1 mM CaCl2, 1 mM MgSO4, 18 mM D-glucose, and 20 mM HEPES. The pH calibration was fit to a linear regression curve. Intracellular proton concentration was calculated from the pH. The reduced amount of protons in the cell was calculated by log 2 transformation of the ratio between treated and untreated cells (control). The presented data is given as percent variation in comparison to untreated cells.

HGT-1 cells [4] = test: Proton secretion in HGT-1 cells after stimulation with bitter substances (intracellular pH, SNARF-1-AM); type: cell-based, human; details: 10 min stimulation, vs untreated cells
Method: as §1, with “of 100 000” for “of 100,000”, “with Krebs-Ringer-HEPES buffer (KRHB),” for “with KRHB”, “488 nm, whereas” for “488 nm and”, “linear regression.” for “linear regression curve.”, “cells. […] Statistic: one-way Anova with post-hoc Test after Dunn's. Significant differences (p<0.05) are indicated by letters. […] Statistic: one-way Anova with post-hoc Test after Dunn's. Significant differences (p<0.05) are indicated by letters.” for “cells.”

[5] = caffeine 500 ppm + test compound 100 ppm
[6] = theobromine 300 ppm + test compound 100 ppm
[7] = 0.3 mM theobromine + 0.03 mM test compound
[8] = 0.3 mM theobromine + 0.3 mM test compound
[9] = 3 mM caffeine + 0.03 mM test compound
[10] = 3 mM caffeine + 0.3 mM test compound
[11] = caffeine 500 ppm + test compound 25 ppm
[12] = theobromine 300 ppm + test compound 25 ppm

What does the source list for Cn1c(=O)c2c(ncn2C)n(C)c1=O [Caffeine, caffeine]?
Percent effect on proton secretion T/C [%] ([1]; mock transfected cells): 52.80%; Percent effect on proton secretion T/C [%] ([1]; not transfected cells): 48.80%; Percent effect on proton secretion T/C [%] ([1]; siRNA TAS2R10 knockdown cells): 28.58%; Bitterness Bitter compound alone ([2]; 500 ppm): 6.7 ± 1.1 and 4.1 ± 0.9 and 6.3 ± 1.4; Percent increase in proton secretion T/C [%] (HGT-1 cells [3]; 3 mM caffeine alone): 54.79% and 54.05% and 38.75% and 52.41%; Proton secretion T/C [%] (HGT-1 cells [4]; 0.3 μM): 25.49%; Proton secretion T/C [%] (HGT-1 cells [4]; 3 μM): 14.74%; Proton secretion T/C [%] (HGT-1 cells [4]; 30 μM): 23.43%; Proton secretion T/C [%] (HGT-1 cells [4]; 300 μM): 17.07%; Proton secretion T/C [%] (HGT-1 cells [4]; 3000 μM): 40.97%

Which results are given for O=C1C[C@@H](c2ccc(O)c(O)c2)Oc2cc(O)cc(O)c21 [Eriodictyol, eriodictyol]?
% Reduction of the Bitter impression [2, 5]: 47%; Bitterness Bitter compound + Test substance [2, 5]: 3.5 ± 0.7; % Reduction of the Bitter impression [2, 6]: 36%; Bitterness Bitter compound + Test substance [2, 6]: 2.4 ± 1.2; Percent increase in proton secretion T/C [%] (HGT-1 cells [3]; [7]): 23.95%; Percent increase in proton secretion T/C [%] (HGT-1 cells [3]; [8]): −42.86%; Percent increase in proton secretion T/C [%] (HGT-1 cells [3]; [9]): 29.69%; Percent increase in proton secretion T/C [%] (HGT-1 cells [3]; [10]): −33.96%

Which “Proton secretion T/C [%]” value (HGT-1 cells [4]; 1 mM) does the source give for NCCc1c[nH]cn1 [Histamine, histamine] here?
The value was 36.66% and 45.70%.

How did the “% Reduction of the Bitter impression” value [2, 5] turn out when COc1cc([C@@H]2CC(=O)c3c(O)cc(O)cc3O2)ccc1O [Homoeriodictyol, homoeriodictyol] was run?
Its value is 28%.

And the “Bitterness Bitter compound + Test substance” value [2, 5]?
Its value is 4.5 ± 1.4.

What about the “% Reduction of the Bitter impression” value [2, 6] of the same compound?
Its value is 12.5%.

What about the “Bitterness Bitter compound + Test substance” value [2, 6] of the same compound?
Its value is 3.7 ± 1.3.

What about the “Percent increase in proton secretion T/C [%]” value (from here on “Percent increase … [%]”) (HGT-1 cells [3]; 0.3 mM theobromine + 0.003 mM test compound) of the same compound?
The value was 21.56%.

What about the “Percent increase … [%]” value (HGT-1 cells [3]; [7]) of the same compound?
The value was 13.79%.

And the “Percent increase … [%]” value (HGT-1 cells [3]; [8])?
The value was −16.92%.

And the “Percent increase … [%]” value (HGT-1 cells [3]; [9])?
Its value is 37.99%.

And the “Percent increase … [%]” value (HGT-1 cells [3]; [10])?
The value was 20.18%.

How did the “% Reduction of the Bitter impression” value [2, 11] turn out when COc1cc(C[C@H]2CO[C@H](c3ccc(O)c(OC)c3)[C@H]2CO)ccc1O [Lariciresinol, lariciresinol] was run?
Its value is 38.6%.

What about the “Bitterness Bitter compound + Test substance” value [2, 11] of the same compound?
The value was 2.9 ± 1.41.

What about the “% Reduction of the Bitter impression” value [2, 12] of the same compound?
The value was 10.7%.

And the “Bitterness Bitter compound + Test substance” value [2, 12]?
Its value is 3.7 ± 2.24.

And the “Percent increase … [%]” value (HGT-1 cells [3]; [7])?
Its value is 31.73%.

And the “Percent increase … [%]” value (HGT-1 cells [3]; [8])?
Its value is 17.55%.

And the “Percent increase … [%]” value (HGT-1 cells [3]; [9])?
Its value is 46.40%.

What about the “Percent increase … [%]” value (HGT-1 cells [3]; [10]) of the same compound?
The value was 21.57%.

What does the source list for COc1cc(C[C@H]2COC(=O)[C@@H]2Cc2ccc(O)c(OC)c2)ccc1O [Matairesinol, matairesinol]?
% Reduction of the Bitter impression [2, 11]: 35.5%; Bitterness Bitter compound + Test substance [2, 11]: 2.7 ± 1.77; % Reduction of the Bitter impression [2, 12]: 24.7%; Bitterness Bitter compound + Test substance [2, 12]: 3.4 ± 1.49; Percent increase in proton secretion T/C [%] (HGT-1 cells [3]; [7]): 23.41%; Percent increase in proton secretion T/C [%] (HGT-1 cells [3]; [8]): −18.25%; Percent increase in proton secretion T/C [%] (HGT-1 cells [3]; [9]): 14.39%; Percent increase in proton secretion T/C [%] (HGT-1 cells [3]; [10]): −20.43%

Which results are given for Cn1cnc2c1c(=O)[nH]c(=O)n2C [Theobromine, theobromine]?
Bitterness Bitter compound alone ([2]; 300 ppm): 3.8 ± 1.8 and 4.5 ± 2.01 and 4.2 ± 1.65 and 4.3 ± 1.8; Proton secretion T/C [%] (HGT-1 cells [4]; 0.03 μM): 3.71%; Proton secretion T/C [%] (HGT-1 cells [4]; 0.3 μM): 17.71%; Proton secretion T/C [%] (HGT-1 cells [4]; 3 μM): 43.16%; Proton secretion T/C [%] (HGT-1 cells [4]; 30 μM): 44.88%; Proton secretion T/C [%] (HGT-1 cells [4]; 300 μM): 57.2%
